Experimental data reported in patent US10028992B2, “Methods of treating muscular dystrophy” (BOARD OF REGENTS OF THE NEVADA SYSTEM OF HIGHER EDUCATION …, priority 2012, dated 2018).
Where two headings read alike, the source gives them in different places.

System: α7 integrin promoter
Experiment: muscle cell-based assay: α7βgal+/− myoblasts/myotubes, LacZ reporter, β-galactosidase cleavage of FDG
Parameters: species or system mouse
Details: for AC50: Mus musculus, read-out: Fit Log AC50 (converted)
Description: An α7 integrin null mouse was produced in which exon 1 of the gene encoding the α7 integrin was replaced by the LacZ reporter. In these mice, all the transcriptional regulatory elements of the α7 integrin promoter were retained, allowing β-galactosidase to report expression of 7 integrin. A primary myoblast cell line (designated α7βgal^+/−) isolated from 10 day old α7^+/− pups were analyzed for the ability of β-galactosidase to report α7 integrin expression. α7βgal^+/− myoblasts were differentiated and subjected to X-gal staining and western analysis (FIGS. 1A and 1B).
The activity of the α7 integrin promoter was measured by β-galactosidase cleavage of the non-fluorescent compound fluorescein di-β-D-galactopyranoside (FDG) to fluorescein. This assay was used to screen compound libraries to identify molecules that up-regulate α7 integrin expression in muscle.
Also evaluated was the effect of various isoforms of laminin and the ligand for α7β1 integrin on integrin expression. Positive hits were subjected to dose-response analysis, western analysis and a myostatin counterscreen (a negative regulator of muscle growth).

[1] = Table 12, log of AC50, given with negative sign, unit of AC50 not given
[2] = Table 12, fitted activity at zero concentration
[3] = Table 12 Compound data, concentration-response curve fit
[4] = Table 12, fitted activity at infinite concentration

Structure (SMILES)	AC50 [1] [µM]	Fit HillSlope (Table 12, curve fit)	Fit Zero Activity [%] [2] [%]	Fit Curve Class (Table 12, key not given)	Score [3]	Curve Description	Fit Curve Class	Fit HillSlope	Fit Infinite Activity [%]	Fit Log AC50	Fit Zero Activity [%]	Score	Fit Infinite Activity [%] [4] [%]	Fit Log AC50 [1]
O=C(COC(=O)c1cc2ccccc2oc1=O)Nc1ccc(F)cc1F [Compound 60]	4.47	1.7529	−12.5146	2.1	45	–	–	–	–	–	–	–	–	–
CCNC(=O)CSc1nc(-c2ccc(F)cc2)cs1 [Compound 61]	5.01	1.1705	−3.94	2.1	45	–	–	–	–	–	–	–	–	–
CC(C)NC(=O)CN1CCN(C(=O)CCl)CC1.Cl [Compound 62]	7.08	1.9673	−23.864	2.1	45	–	–	–	–	–	–	–	–	–
CS(=O)(=O)N(Cc1ccc(C(=O)NC2CCCC2)cc1)c1ccccc1 [Compound 63]	10	3.1925	−1.7425	2.1	45	–	–	–	–	–	–	–	–	–
C=CCN(CC=C)C(=O)c1ccc(OC2CCN(S(=O)(=O)N(C)C)CC2)cc1 [Compound 64]	5.01	2.4729	−4.9734	2.1	45	–	–	–	–	–	–	–	–	–
O=C(O)CCn1cc(/C=C2/NC(=S)N(c3ccccc3)C2=O)c(-c2ccccc2)n1 [Compound 65]	–	–	–	–	–	Partial	2.1	4.095	501.215	−4.7	9.2299	45	–	–
CCc1nnc(NC(=O)c2ccc(S(=O)(=O)NCC(C)C)cc2)s1 [Compound 66]	12.6	4.5045	11.9175	2.1	45	–	–	–	–	–	–	–	–	–
CC1CCCCC12NC(=O)N(CC(=O)OCc1cccc(F)c1)C2=O (centres unmarked) [Compound 67]	10	1.4163	4.7344	2.1	44	–	–	–	–	–	–	–	–	–
CNc1nnc(SCC(=O)c2cc(C)n(C3CC3)c2C)s1 [Compound 68]	12.6	4.5045	−17.9914	2.1	44	–	–	–	–	–	–	–	–	–
CCCCNc1nnc(SCC(=O)c2c(N)n(CCC)c(=O)[nH]c2=O)s1 [Compound 69]	3.98	1.3987	−2.436	2.1	44	–	–	–	–	–	–	–	–	–
C/C(=N\OCC(=O)OC(C)C(=O)Nc1ccc(C(N)=O)cc1)c1ccc2c(c1)OCO2 (centres unmarked) [Compound 70]	4.47	1.2876	−19.1057	2.1	44	–	–	–	–	–	–	–	–	–
COc1cc(C(C(=O)NC2CCCCC2)N(C(=O)c2snc(C(N)=O)c2N)c2ccc(C)cc2)ccc1O (centres unmarked) [Compound 71]	7.94	1.3443	−2.1806	2.1	44	–	–	–	–	–	–	–	–	–
CC1CCN(S(=O)(=O)c2ccc(S(=O)(=O)N3CCCC3)cc2)CC1 [Compound 72]	8.91	2.3332	−2.3089	2.1	44	–	–	–	–	–	–	–	–	–
CCC(CC)C(=O)Nc1c(C(=O)N2CCN(c3ccccc3)CC2)oc2ccccc12 [Compound 73]	12.6	4.095	16.3113	2.1	44	–	–	–	–	–	–	–	–	–
COc1ccc(CCNC(=O)c2nn(C)c3c2CS(=O)(=O)c2ccccc2-3)cc1OC [Compound 74]	4.47	1.8617	−23.105	2.1	44	–	–	–	–	–	–	–	–	–
COc1ccc(Nc2ncnc3ccc(Br)cc23)cc1OC [Compound 75]	3.98	1.5579	26.9551	2.2	44	–	–	–	–	–	–	–	–	–
CCOc1ccc2ccccc2c1C1NC(=O)N(C)C(C)=C1C(=O)OCCOC (centres unmarked) [Compound 76]	6.31	1.3443	−8.518	2.1	44	–	–	–	–	–	–	–	–	–
Cc1ccc(NC(=O)NCc2nc3ccccc3n2C)cc1 [Compound 77]	4.47	1.8617	−34.2328	2.1	44	–	–	–	–	–	–	–	–	–
COc1ccc(C(=O)ONC(=N)c2cccc(C)c2)cc1OC [Compound 78]	10	1.7137	9.6566	2.1	44	–	–	–	–	–	–	–	–	–

Structure (SMILES)	AC50 [1] [µM]	Fit HillSlope (Table 12, curve fit)	Fit Zero Activity [%] [2] [%]	Fit Curve Class (Table 12, key not given)	Score [3]	Curve Description	Fit Curve Class	Fit HillSlope	Fit Infinite Activity [%]	Fit Log AC50	Fit Zero Activity [%]	Score	Fit Infinite Activity [%] [4] [%]	Fit Log AC50 [1]
CNc1cc([N+](=O)[O-])ccc1OCc1ccccc1 [Compound 79]	4.47	1.3437	−0.3646	2.1	44	–	–	–	–	–	–	–	–	–
COC(=O)Cc1c(O)ccn(Cc2ccc3c(c2)OCO3)c1=O [Compound 80]	10	1.4163	−6.484	2.1	44	–	–	–	–	–	–	–	–	–
O=C(Nc1ccccc1F)c1ccc([N+](=O)[O-])s1 [Compound 81]	12.6	4.5045	3.1931	2.1	44	–	–	–	–	–	–	–	–	–
C/N=C(\S)N1CCC(NC(=O)C(Cc2ccc(F)cc2)NC(C)=O)CC1 (centres unmarked) [Compound 82]	3.16	1.1341	−6.4745	2.1	44	–	–	–	–	–	–	–	89.9991	–
CCS(=O)(=O)N1CCCC(C(=O)c2ccc(OC)cc2C)C1 (centres unmarked) [Compound 83]	11.2	2.0937	−12.9886	2.1	44	–	–	–	–	–	–	–	–	–
CCCS(=O)(=O)N1CCCC(C(=O)c2cccc(Cl)c2)C1 (centres unmarked) [Compound 84]	6.31	1.2221	−7.9639	2.1	44	–	–	–	–	–	–	–	–	–
CC(C)(C)c1ccc(C(=O)OCC(=O)Nc2sc3c(c2C#N)CCC3)cc1 [Compound 85]	5.01	1.8617	3.2331	2.1	44	–	–	–	–	–	–	–	–	–
Cc1ccc(C2=C(CC(=O)O)C(=O)CC2)cc1 [Compound 86]	4.47	0.8	0.4963	2.1	44	–	–	–	–	–	–	–	–	–
CN(C)c1ccnc2sc(C(N)=O)c(N)c12 [Compound 87]	–	2.1211	21.3502	2.2	44	–	–	–	–	–	–	–	–	–
C[C@H]1CNC(=O)c2c(C(=O)Nc3ccc(CNC(=O)OC(C)(C)C)cc3)ncn21 [Compound 88]	8.91	1.01	9.418	2.1	43	–	–	–	–	–	–	–	–	–
CCCN(C(=O)c1ccc(S(=O)(=O)N2CCCC2)cc1)C1CCS(=O)(=O)C1 (centres unmarked) [Compound 89]	5.01	1.6924	−10.8957	2.2	43	–	–	–	–	–	–	–	–	–
CN(CC(=O)Nc1cccc(F)c1)C(=O)c1ccc(-c2ccc(Cl)cc2)o1 [Compound 90]	11.2	4.5045	5.7331	2.1	43	–	–	–	–	–	–	–	–	–
COc1ccc(C(=O)N/C(=C/c2cccnc2)C(=O)N2CCN(C)CC2)cc1OC [Compound 92]	4.47	1.6259	1.7602	2.2	43	–	–	–	–	–	–	–	–	–
COc1cccc(C(=O)NCC(=O)N2CCC3(CC2)NCCc2[nH]cnc23)c1 [Compound 93]	11.2	1.7529	−3.6365	2.1	43	–	–	–	–	–	–	–	–	–
COc1ccc(-c2csc3ncnc(N4CCN(c5ccccc5[N+](=O)[O-])CC4)c23)cc1 [Compound 94]	–	4.9549	9.6823	2.1	43	–	–	–	–	–	–	–	138.031	−5
O=C(COc1cc2oc(=O)c3c(c2cc1Cl)CCCC3)NC[C@H]1CC[C@H](C(=O)O)CC1 [Compound 95]	7.08	1.01	−14.8966	2.2	43	–	–	–	–	–	–	–	–	–
COCCn1c(=N)c(S(=O)(=O)c2ccc(Br)cc2)cc2c(=O)n3ccccc3nc21 [Compound 96]	4.47	1.9887	−8.0822	2.2	43	–	–	–	–	–	–	–	–	–
CN(Cc1c(C(=O)N/N=C/c2cccc(F)c2)nnn1-c1nonc1N)c1ccccc1 [Compound 97]	5.62	3.132	1.2108	2.2	43	–	–	–	–	–	–	–	–	–
